The record followed here is ChEMBL document CHEMBL4130470, “Lipid lowering agents of natural origin: An account of some promising chemotypes” (2017).

Test [1] relates to Rattus norvegicus. Description: Increase in HDL-C level in rat dosed for 7 days. The test is classed as functional.
Test [2] deals with Rattus norvegicus. The test can be described thus: Reduction in LDL-C level in rat dosed for 7 days. The class given is functional. More on the design: scale not given: the % may be the effect or the level left.
Test [3] has as its system Hamster. Description: Antidyslipidemic activity in HFD-fed dyslipidemic hamster assessed as HDLC/total cholesterol at 50 mg/kg. The test is classed as functional, Cricetinae.
Test [4] has as its system Hamster. The test can be described thus: Antidyslipidemic activity in HFD-fed dyslipidemic hamster assessed as reduction in serum glycerol at 50 mg/kg. The class given is functional, Cricetinae. More on the design: scale not given: the % may be the effect or the level left.
Test [5] concerns Hamster. Description: Antidyslipidemic activity in HFD-fed dyslipidemic hamster assessed as reduction in serum total cholesterol at 50 mg/kg. The class given is functional, Cricetinae. Also noted: scale not given: the % may be the effect or the level left.
Test [6] has as its system Hamster. Description: Antidyslipidemic activity in HFD-fed dyslipidemic hamster assessed as reduction in serum triglyceride level at 50 mg/kg. The test is classed as functional, Cricetinae. Also noted: scale not given: the % may be the effect or the level left.
Test [7] concerns Homo sapiens. The test can be described thus: Reduction in total cholesterol level in hypercholesterolemic patient dosed for 3 months. The test is classed as functional. More on the design: scale not given: the % may be the effect or the level left.
The test system of test [8] is Hamster. The test can be described thus: Increase in hepatic LDLR mRNA hyperlipidemic hamster relative to untreated control. The test is classed as functional, Cricetinae.
Test [9] has as its system Homo sapiens. The test can be described thus: Reduction in triglyceride level in hypercholesterolemic patient dosed for 3 months. The class given is functional. Also noted: scale not given: the % may be the effect or the level left.
The test system of test [10] is Hamster. The test can be described thus: Reduction in serum LDL-C level hyperlipidemic hamster relative to untreated control. The test is classed as functional, Cricetinae. More on the design: scale not given: the % may be the effect or the level left.
The subject of test [11] is Homo sapiens. The test can be described thus: Reduction in LDL-C level in hypercholesterolemic patient dosed for 3 months. The test is classed as functional. More on the design: scale not given: the % may be the effect or the level left.
In test [12] the test system is Hamster. The test can be described thus: Increase in hepatic LDLR protein hyperlipidemic hamster relative to untreated control. The class given is functional, Cricetinae.
The subject of test [13] is Hamster. Description: Reduction in serum total cholesterol level hyperlipidemic hamster relative to untreated control. The class given is functional, Cricetinae. Also noted: scale not given: the % may be the effect or the level left.
Test [14] is filed under the species Homo sapiens. Description: Reduction in serum lipid peroxides in human at 500 mg/day. The test is classed as functional. More on the design: scale not given: the % may be the effect or the level left.
The species entered for test [15] is Homo sapiens. Description: Increase in HDL-C in human at 500 mg/day. The class given is functional.
For test [16], the species on record is Homo sapiens. The test can be described thus: Reduction in total cholesterol in human at 500 mg/day. The class given is functional. More on the design: scale not given: the % may be the effect or the level left.
For test [17], the species on record is Homo sapiens. The test can be described thus: Reduction in total cholesterol level in patient with moderate hypercholesterolemia at 20 to 80 mg/day. The class given is functional. Also noted: scale not given: the % may be the effect or the level left.
The species named for test [18] is Homo sapiens. Description: Increase in HDL-C level in patient with moderate hypercholesterolemia at 20 to 80 mg/day. The class given is functional.
The species entered for test [19] is Homo sapiens. The test can be described thus: Reduction in LDL-C level in patient with moderate hypercholesterolemia at 20 to 80 mg/day. The class given is functional. Also noted: scale not given: the % may be the effect or the level left.
For test [20], the species on record is Homo sapiens. The test can be described thus: Reduction in triglyceride level in patient with moderate hypercholesterolemia at 20 to 80 mg/day. The test is classed as functional. Also noted: scale not given: the % may be the effect or the level left.
The species named for test [21] is Sus scrofa. Description: Reduction in total cholesterol in swine with metabolic syndrome and myocardial ischemia. The class given is functional. Also noted: scale not given: the % may be the effect or the level left.
Test [22] is filed under the species Sus scrofa. The test can be described thus: Reduction in LDL in swine with metabolic syndrome and myocardial ischemia. The class given is functional. More on the design: scale not given: the % may be the effect or the level left.
For test [23], the species on record is Homo sapiens. The test can be described thus: Reduction in LDL-C level in patient with heterozygous familial hypercholesterolaemia at 40 mg/day. The test is classed as functional. Also noted: scale not given: the % may be the effect or the level left.
For test [24], the species on record is Homo sapiens. The test can be described thus: Increase in HDL-C level in patient with heterozygous familial hypercholesterolaemia at 40 mg/day. The class given is functional.
The species named for test [25] is Homo sapiens. The test can be described thus: Reduction in triglyceride level in patient with heterozygous familial hypercholesterolaemia at 40 mg/day. The test is classed as functional. More on the design: scale not given: the % may be the effect or the level left.
Test [26] concerns Rattus norvegicus. The test can be described thus: Hypercholesterolemic activity in rat assessed as reduction in triglyceride level at 4 to 25 mg/kg/day. The test is classed as functional. More on the design: scale not given: the % may be the effect or the level left.
The test system of test [27] is Rattus norvegicus. Description: Hypercholesterolemic activity in male rat assessed as reduction in triglyceride level at 80 mg/kg/day for 7 days. The test is classed as functional. More on the design: scale not given: the % may be the effect or the level left.
Test [28] has as its system Rattus norvegicus. The test can be described thus: Hypercholesterolemic activity in male rat assessed as reduction in cholesterol level at 80 mg/kg/day for 7 days. The class given is functional. Also noted: scale not given: the % may be the effect or the level left.
Test [29] deals with Rattus norvegicus. Description: Hypercholesterolemic activity in rat assessed as reduction in plasma cholesterol level at 4 to 25 mg/kg/day. Also noted: scale not given: the % may be the effect or the level left. The class given is functional.
The subject of test [30] is Rattus norvegicus. The test can be described thus: Hypercholesterolemic activity in rat assessed as reduction in cholesterol level at 80 mg/kg/day for 8 days. The class given is functional. Also noted: scale not given: the % may be the effect or the level left.

The structures appear in SMILES notation.

For the compound `C/C=C/c1cc(OC)c(OC)c(OC)c1`, the Activity is 56% in test [1] and 47% in [2].

As to `CC(C)=CCC/C(C)=C/CC/C(C)=C/CC/C(C)=C\CC/C(C)=C\CC/C(C)=C\CC/C(C)=C\CC/C(C)=C\CC/C(C)=C\CC/C(C)=C\CC/C(C)=C\CC/C(C)=C\CO`, the Activity in test [3] was 26%; in test [4] it was 12%; in test [5], 25%; in [6], 42%.

In the case of `COc1ccc2cc3[n+](cc2c1OC)CCc1cc2c(cc1-3)OCO2` [BERBERINE], the Activity in test [7] is given as 29%; in test [9], 35%; in [10], 42%; in test [11], 25%; in test [13], 40%. Besides, the “fold change (FC)” value amounted to 3.5 in test [8] and 2.6 in [12].

As to `COc1cc(/C=C/C(=O)CC(=O)/C=C/c2ccc(O)c(OC)c2)ccc1O` [CURCUMIN], the Activity in test [14] stood at 33%; in [15], 29%; in [16] it was 12%.

With `CC[C@H](C)C(=O)O[C@H]1C[C@@H](C)C=C2C=C[C@H](C)[C@H](CC[C@@H]3C[C@@H](O)CC(=O)O3)[C@H]21` [LOVASTATIN], the Activity in test [17] is on record as 17 - 29%; in test [18] it was 6.6 - 9.5%; in test [19] it was 24 - 40%; in test [20] it was 10 - 19%.

For the compound `Oc1ccc(/C=C/c2cc(O)cc(O)c2)cc1` [RESVERATROL], the Activity in test [21] is on record as 33%; in test [22] it was 30%.

Regarding `CCC(C)(C)C(=O)O[C@H]1C[C@@H](C)C=C2C=C[C@H](C)[C@H](CC[C@@H]3C[C@@H](O)CC(=O)O3)[C@H]21` [SIMVASTATIN], the Activity is listed as 43 - 45% in test [23], 10 - 13% in test [24] and 21 - 31% in [25].

For the compound `C/C=C/c1cc(OC)c(OC)cc1OC` [TRANS-ASARONE], the Activity is listed as 40 - 60% in [26]; 42% in test [27]; 57% in test [28]; 40 - 60% in test [29]; 38% in test [30].
